Drawing on ChEMBL document CHEMBL1136614, “Hydroporphyrins as tumour photosensitizers: synthesis and photophysical studies of 2,3-dihydro-5,15-di(3,5-dihydroxyphenyl) porphyrin” (2003), this text covers Survival, LD90 and Inhibition for one molecule.

One experiment relates to C6. Kind of experiment: Survival rates when cells were incubated for 5 hr without light. It counts as functional, Rattus norvegicus.
The nature of experiment [1]: Dose required to induce 90% death rate for C6 glioma cells from rats. It counts as functional, Rattus norvegicus.
Another experiment relates to HT-29. Description: Compound was tested for in vivo photo-sensitizing activity on human colon adenocarcinoma cell (HT-29). Format: functional.

In the experiment with C6, `Oc1cc(O)cc(-c2c3nc(cc4ccc([nH]4)c(-c4cc(O)cc(O)c4)c4ccc(cc5nc2CC5)[nH]4)C=C3)c1` showed a Survival of 100%. Besides, in experiment [1], the LD90 amounted to 4.8 µg/mL. In addition, the Inhibition (usually how much of the control response was suppressed) in the experiment with HT-29 stood at 40%.
